Data on 14 compounds can be found in ChEMBL document CHEMBL5528044, “Exploring the Function of (+)-Naltrexone Precursors: Their Activity as TLR4 Antagonists and Potential in Treating Morphine Addiction” (J Med Chem, 2024).

pIC50: −log10 of the molar value. Active and inactive are the calls of the source. No cut-off for these calls is given here.

In one assay the target is T1, Toll-like receptor 4 (Mus musculus, UniProt Q9QUK6).
T1 sequence (Q9QUK6 whole entry): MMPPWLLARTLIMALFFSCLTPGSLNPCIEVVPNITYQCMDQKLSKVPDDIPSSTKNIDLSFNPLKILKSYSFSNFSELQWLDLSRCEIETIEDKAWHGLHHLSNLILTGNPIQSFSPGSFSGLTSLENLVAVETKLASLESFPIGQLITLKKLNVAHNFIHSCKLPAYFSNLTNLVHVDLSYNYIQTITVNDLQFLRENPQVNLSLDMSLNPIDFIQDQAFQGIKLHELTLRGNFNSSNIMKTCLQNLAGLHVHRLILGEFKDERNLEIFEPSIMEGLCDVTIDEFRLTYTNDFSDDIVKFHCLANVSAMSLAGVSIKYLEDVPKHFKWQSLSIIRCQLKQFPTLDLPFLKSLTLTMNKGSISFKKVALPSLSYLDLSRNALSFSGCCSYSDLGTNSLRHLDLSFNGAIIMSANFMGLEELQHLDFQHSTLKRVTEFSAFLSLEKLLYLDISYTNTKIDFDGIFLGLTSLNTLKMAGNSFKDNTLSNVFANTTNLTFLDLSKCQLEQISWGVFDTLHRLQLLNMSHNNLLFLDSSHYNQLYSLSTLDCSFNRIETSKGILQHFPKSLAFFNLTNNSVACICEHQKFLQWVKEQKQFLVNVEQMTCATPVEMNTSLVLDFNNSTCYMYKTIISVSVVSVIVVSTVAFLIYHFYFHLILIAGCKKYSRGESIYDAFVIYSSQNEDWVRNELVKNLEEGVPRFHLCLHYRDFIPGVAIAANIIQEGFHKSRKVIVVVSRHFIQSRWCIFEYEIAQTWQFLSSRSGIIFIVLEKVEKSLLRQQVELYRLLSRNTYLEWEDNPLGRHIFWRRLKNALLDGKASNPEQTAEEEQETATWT
The experiment in a line: Antagonist activity at TLR4 in mouse BV-2 cells assessed as inhibition of LPS-induced NO overproduction incubated for 24 hrs by 2,3-diaminonaphthalene reagent based microplate reader analysis. In kind it is cell-based.

The target of assay [1] is T2, Toll-like receptor 4 (Mus musculus) (UniProt Q9QUK6).
T2 sequence (whole entry): T1 sequence (Q9QUK6 whole entry)
The experiment in a line: Antagonist activity at TLR4 in mouse BV-2 cells assessed as inhibition of LPS-induced TNF-alpha production at 0.01 to 100 uM by ELISA. In kind it is cell-based. Particulars: dose 0.01-100 µM. On the technique in general: ELISA stands for enzyme-linked immunosorbent assay.

Assay [2] has as its target T2, Toll-like receptor 4 (Mus musculus). The experiment in a line: Antagonist activity at TLR4 in mouse BV-2 cells assessed as inhibition of LPS-induced NF-kappaB activation at 4 uM incubated for 24 hrs by dual-glo luciferase assay. Format: cell-based.
Assay [3] shares this target. The experiment in a line: Antagonist activity at TLR4 signaling pathway in mouse BV-2 cells assessed as inhibition of LPS-induced TRIF recruitment at 5 uM incubated for 1 hr by co-immunoprecipitation based Western blot analysis. In kind it is cell-based.
For assay [4] the target is unchanged. Briefly: Antagonist activity at TLR4 signaling pathway in mouse BV-2 cells assessed as inhibition of LPS-induced MyD88 recruitment at 5 uM incubated for 1 hr by co-immunoprecipitation based Western blot analysis. In kind it is cell-based. Background: In western blotting, separated proteins are transferred to a membrane and probed.
For assay [5] the target is unchanged. Briefly: Antagonist activity at TLR4 signaling pathway in mouse BV-2 cells assessed as downregulation of LPS-induced IKKalpha phosphorylation at 5 uM incubated for 1 hr by Western blot analysis. In kind it is cell-based.
Assay [6] shares this target. Briefly: Antagonist activity at TLR4 signaling pathway in mouse BV-2 cells assessed as downregulation of LPS-induced IKKbeta phosphorylation at 5 uM incubated for 1 hr by Western blot analysis. In kind it is cell-based.
The target is the same in assay [7]. The experiment in a line: Antagonist activity at TLR4 signaling pathway in mouse BV-2 cells assessed as downregulation of LPS-induced ERK phosphorylation at 5 uM incubated for 1 hr by Western blot analysis. In kind it is cell-based.
Assay [8] shares this target. The experiment in a line: Antagonist activity at TLR4 signaling pathway in mouse BV-2 cells assessed as downregulation of LPS-induced JNK phosphorylation at 5 uM incubated for 1 hr by Western blot analysis. Format: cell-based.
Assay [9] shares this target. The experiment in a line: Antagonist activity at TLR4 signaling pathway in mouse BV-2 cells assessed as downregulation of LPS-induced IRF-3 phosphorylation at 5 uM incubated for 1 hr by Western blot analysis. In kind it is cell-based.
Assay [10] concerns Mus musculus. The experiment in a line: Inhibition of morphine-induced addiction behavior in Balb/c mouse assessed as decrease in locomotor activity at 0.2 mg/kg,ip administrated on day 4 to 10 by open-field test. In kind it is functional, organism-based. Particulars: time 7.0 day.
Assay [11] has as its system Mus musculus. Briefly: Inhibition of morphine-induced addiction behavior in Balb/c mouse assessed reduction in CPP score at 0.2 mg/kg,ip administrated for 6 consecutive days by conditioned place preference assay. In kind it is functional, organism-based.
Assay [12] has as its system Mus musculus. The experiment in a line: Inhibition of chronic morphine-induced microglia activation in Balb/c mouse assessed as reduction in Iba1 expression in brain medial prefrontal cortex region at 0.2 mg/kg,ip administrated for 6 consecutive days by immunofluorescence staining based analysis. In kind it is functional, organism-based.
The test system of assay [13] is Mus musculus. Briefly: Inhibition of chronic morphine-induced microglia activation in Balb/c mouse assessed as reduction in Iba1 expression in brain ventral tegmental area region at 0.2 mg/kg,ip administrated for 6 consecutive days by immunofluorescence staining based analysis. Format: functional, organism-based.
The subject of assay [14] is Mus musculus. The experiment in a line: Inhibition of chronic morphine-induced microglia activation in Balb/c mouse assessed as reduction in Iba1 expression in nucleus accumbens region at 0.2 mg/kg,ip administrated for 6 consecutive days by immunofluorescence staining based analysis. In kind it is functional, organism-based.
Assay [15] relates to Mus musculus. The experiment in a line: Inhibition of chronic morphine-induced microglia activation in Balb/c mouse assessed as reduction in TNF-alpha mRNA expression in brain medial prefrontal cortex region at 0.2 mg/kg,ip administrated for 6 consecutive days by qPCR analysis. In kind it is functional, organism-based. For orientation: Real-time PCR tracks product formation cycle by cycle.

Assay [16] has as its system Mus musculus. The experiment in a line: Inhibition of chronic morphine-induced microglia activation in Balb/c mouse assessed as reduction in TNF-alpha mRNA expression in brain ventral tegmental area region at 0.2 mg/kg,ip administrated for 6 consecutive days by qPCR analysis. Format: functional, organism-based.
Assay [17] deals with Mus musculus. The experiment in a line: Inhibition of chronic morphine-induced microglia activation in Balb/c mouse assessed as reduction in TNF-alpha mRNA expression in brain nucleus accumbens region at 0.2 mg/kg,ip administrated for 6 consecutive days by qPCR analysis. In kind it is functional, organism-based.
The subject of assay [18] is Mus musculus. The experiment in a line: Inhibition of chronic morphine-induced microglia activation in Balb/c mouse assessed as reduction in microglia cell number in brain medial prefrontal cortex region at 0.2 mg/kg,ip administrated for 6 consecutive days by immunofluorescence staining based analysis. Format: functional, organism-based.
Assay [19] has as its system Mus musculus. The experiment in a line: Inhibition of chronic morphine-induced microglia activation in Balb/c mouse assessed as reduction in microglia cell number in brain ventral tegmental area region at 0.2 mg/kg,ip administrated for 6 consecutive days by immunofluorescence staining based analysis. In kind it is functional, organism-based.
The test system of assay [20] is Mus musculus. The experiment in a line: Inhibition of chronic morphine-induced microglia activation in Balb/c mouse assessed as reduction in microglia cell number in brain nucleus accumbens region at 0.2 mg/kg,ip administrated for 6 consecutive days by immunofluorescence staining based analysis. In kind it is functional, organism-based.

In general, pIC50 refers to the negative decadic logarithm of the IC50, by convention in mol/L. With `COc1ccc2c3c1O[C@@H]1C(=O)CC[C@@H]4[C@H](C2)N(C)CC[C@@]314`, the pIC50 at Toll-like receptor 4 was less than 3.70.

`COc1ccc2c3c1O[C@@H]1C(OC)(OC)C(Br)C[C@@H]4[C@H](C2)N(C)CC[C@]341` (some centres not stated): on Toll-like receptor 4, the pIC50 was less than 3.70.

`COc1ccc2c3c1O[C@@H]1C(=O)CC[C@]4(OC(C)=O)[C@H](C2)N(C)CC[C@@]314`: the pIC50 on Toll-like receptor 4 is less than 3.70.

As for `COc1ccc2c3c1O[C@@H]1C(OC)(OC)CC[C@@H]4[C@H](C2)N(C)CC[C@]341`, at Toll-like receptor 4, the pIC50 was less than 3.70.

Consider `COc1ccc2c3c1O[C@@H]1C(=O)C=C[C@@H]4[C@H](C2)N(C)CC[C@@]314`, for which the pIC50 on Toll-like receptor 4 was 5.16.

With `CN1CC[C@@]23c4c5ccc(O)c4O[C@@H]2C(=O)CC[C@]3(O)[C@@H]1C5`, the pIC50 on Toll-like receptor 4 is 4.47. Further, the outcome in assay [1], in assay [2], in assay [3], in assay [4], in assay [5] and in [6] was inactive. Besides, the result in assay [7], in [8] and in assay [9] was inactive.

Consider `COC1=CC=C2[C@@H]3Cc4ccc(OC)c5c4[C@]2(CCN3C)[C@@H]1O5`, for which the pIC50 at Toll-like receptor 4 is 3.71.

With `COc1ccc2c(c1O)[C@@]13CCN(C)[C@@H](C2)[C@H]1CC(OC)C(=O)C3` (some centres not stated), at Toll-like receptor 4, the pIC50 was less than 3.70.

Turning to `COc1ccc2c3c1O[C@@H]1C(=O)CC[C@]4(OC(C)=O)[C@H](C2)N(C#N)CC[C@@]314`, the pIC50 at Toll-like receptor 4 is 4.17.

On to `COC1=CC[C@@H]2[C@@H]3Cc4ccc(OC)c5c4[C@]2(CCN3C)[C@@H]1O5`, for which, at Toll-like receptor 4, the pIC50 is less than 3.70.

For `COc1ccc2c3c1O[C@@H]1C(=O)CC[C@]4(O)[C@H](C2)NCC[C@@]314`, the pIC50 at Toll-like receptor 4 is less than 3.70.

For the compound `O=C1CC[C@]2(O)[C@@H]3Cc4ccc(O)c5c4[C@]2(CCN3CC2CC2)[C@@H]1O5`, the inhibition entry in the assay with Mus musculus [10] was “Active”. Besides, the inhibition entry in the assay on Mus musculus [11], with Mus musculus [12], with Mus musculus [13], in the assay on Mus musculus [14], with Mus musculus [15] and in the assay with Mus musculus [16] was “inactive” throughout. Also, the inhibition result with Mus musculus [17], in the assay with Mus musculus [18], in the assay on Mus musculus [19] and with Mus musculus [20] was “inactive” throughout.

`COc1ccc2c3c1O[C@@H]1C(=O)CC[C@]4(O)[C@H](C2)N(C)CC[C@@]314` (single isomer, unassigned): at Toll-like receptor 4, the pIC50 was less than 3.70. In addition, the result in [1], in assay [2], in [3], in assay [4], in assay [5] and in assay [6] was inactive. Also, the outcome in [7], in [8] and in assay [9] was inactive.

As for `COC1=C[C@@H]2[C@@H]3Cc4ccc(OC)c(O)c4[C@]2(CCN3C)CC1=O` [SINOMENINE], on Toll-like receptor 4, the pIC50 was less than 3.70.
